Molecular target: DNA gyrase A/A/B/B tetramer (Escherichia coli (strain K12), UniProt P0AES4+P0AES6)
Assay: DNA Gyrase ATPase Assay

Row | Compound | Ki
1 | CCNC(=O)Nc1nc2c(-n3cccn3)cc(-c3cccnc3)cc2[nH]1 [3-ethyl-1-[7-(1H-pyrazol-1-yl)-5-(pyridin-3-yl)-1H-1,3-benzodiazol-2-yl]urea] | < 4 nM
2 | CCNC(=O)Nc1nc2cc(-c3cccnc3)cc(-c3ncccc3F)c2[nH]1 [3-ethyl-1-[7-(3-fluoropyridin-2-yl)-5-(pyridin-3-yl)-1H-1,3-benzodiazol-2-yl]urea] | < 4 nM
3 | CCNC(=O)Nc1nc2cc(-c3cccnc3)cc(C(=O)OC)c2[nH]1 [methyl 2-[(ethylcarbamoyl)amino]-5-(pyridin-3-yl)-1H-1,3-benzodiazole-7-carboxylate] | < 4 nM
4 | CCNC(=O)Nc1nc2c(-n3cccn3)cc(-c3cncnc3)cc2[nH]1 [3-ethyl-1-[7-(1H-pyrazol-1-yl)-5-(pyrimidin-5-yl)-1H-1,3-benzodiazol-2-yl]urea] | < 4 nM
5 | CCNC(=O)Nc1nc2cc(-n3cnc(C(=O)NC4CC4)c3)c(F)cc2[nH]1 [N-cyclopropyl-1-{2-[(ethylcarbamoyl)amino]-6-fluoro-1H-1,3-benzodiazol-5-yl}-1H-imidazole-4-carboxamide] | < 4 nM
6 | CCNC(=O)Nc1nc2c(-c3ccccn3)cc(-n3cnc(C(=O)NC4CC4)c3)cc2[nH]1 [N-cyclopropyl-1-{2-[(ethylcarbamoyl)amino]-7-(pyridin-2-yl)-1H-1,3-benzodiazol-5-yl}-1H-imidazole-4-carboxamide] | < 4 nM
7 | CCNC(=O)Nc1nc2cc(-c3ccn(C)c(=O)c3)cc(-c3ncccc3F)c2[nH]1 [3-ethyl-1-[7-(3-fluoropyridin-2-yl)-5-(1-methyl-2-oxo-1,2-dihydropyridin-4-yl)-1H-1,3-benzodiazol-2-yl]urea] | < 4 nM
8 | CCNC(=O)Nc1nc2cc(-c3cccnc3)cc(-c3ccccn3)c2[nH]1 [3-ethyl-1-[7-(pyridin-2-yl)-5-(pyridin-3-yl)-1H-1,3-benzodiazol-2-yl]urea] | < 4 nM
9 | CCNC(=O)Nc1nc2c(-n3cccn3)cc(-n3cnc(C(=O)NC4CC4)c3)cc2[nH]1 [N-cyclopropyl-1-{2-[(ethylcarbamoyl)amino]-7-(1H-pyrazol-1-yl)-1H-1,3-benzodiazol-5-yl}-1H-imidazole-4-carboxamide] | < 4 nM

Source: BindingDB's records for doi:10.1021/jm800318d (Vertex Pharmaceuticals, 2008)
